Assay results: US10344060B2 (priority 2013, dated 2019)
Read-outs that look alike come from different tables or passages of the source.

Legend:
Experiment in all cases: cell-based
[1] = biological target: T1, hNav1.7 (Homo sapiens, UniProt Q15858); conditions: for IC50: read-out: IC50 (μM) Nav1.7
[2] = biological target: hNav1.3 (Homo sapiens, UniProt Q9NY46); conditions: IonWorks Quattro, read-out: IC50 (μM) Nav1.3
[3] = biological target: T1, hNav1.7; type: cell-based; conditions: for Nav1.4/Nav1.7 / Nav1.5/Nav1.7: ratio of PX tonic IC50 values, Table 11
[4] = biological target: hNav1.5 (Homo sapiens, UniProt Q14524); conditions: IonWorks Quattro, read-out: IC50 (μM) Nav1.5
[5] = biological target: T2, hNav1.4 (Homo sapiens, UniProt P35499); type: cell-based; conditions: for IC50: IonWorks Quattro, read-out: IC50 (μM) Nav1.4; for Nav1.4/Nav1.7: ratio of IonWorks Quattro IC50 values
[6] = biological target: T2, hNav1.4; type: cell-based; conditions: PX

T1 sequence (Q15858 whole entry): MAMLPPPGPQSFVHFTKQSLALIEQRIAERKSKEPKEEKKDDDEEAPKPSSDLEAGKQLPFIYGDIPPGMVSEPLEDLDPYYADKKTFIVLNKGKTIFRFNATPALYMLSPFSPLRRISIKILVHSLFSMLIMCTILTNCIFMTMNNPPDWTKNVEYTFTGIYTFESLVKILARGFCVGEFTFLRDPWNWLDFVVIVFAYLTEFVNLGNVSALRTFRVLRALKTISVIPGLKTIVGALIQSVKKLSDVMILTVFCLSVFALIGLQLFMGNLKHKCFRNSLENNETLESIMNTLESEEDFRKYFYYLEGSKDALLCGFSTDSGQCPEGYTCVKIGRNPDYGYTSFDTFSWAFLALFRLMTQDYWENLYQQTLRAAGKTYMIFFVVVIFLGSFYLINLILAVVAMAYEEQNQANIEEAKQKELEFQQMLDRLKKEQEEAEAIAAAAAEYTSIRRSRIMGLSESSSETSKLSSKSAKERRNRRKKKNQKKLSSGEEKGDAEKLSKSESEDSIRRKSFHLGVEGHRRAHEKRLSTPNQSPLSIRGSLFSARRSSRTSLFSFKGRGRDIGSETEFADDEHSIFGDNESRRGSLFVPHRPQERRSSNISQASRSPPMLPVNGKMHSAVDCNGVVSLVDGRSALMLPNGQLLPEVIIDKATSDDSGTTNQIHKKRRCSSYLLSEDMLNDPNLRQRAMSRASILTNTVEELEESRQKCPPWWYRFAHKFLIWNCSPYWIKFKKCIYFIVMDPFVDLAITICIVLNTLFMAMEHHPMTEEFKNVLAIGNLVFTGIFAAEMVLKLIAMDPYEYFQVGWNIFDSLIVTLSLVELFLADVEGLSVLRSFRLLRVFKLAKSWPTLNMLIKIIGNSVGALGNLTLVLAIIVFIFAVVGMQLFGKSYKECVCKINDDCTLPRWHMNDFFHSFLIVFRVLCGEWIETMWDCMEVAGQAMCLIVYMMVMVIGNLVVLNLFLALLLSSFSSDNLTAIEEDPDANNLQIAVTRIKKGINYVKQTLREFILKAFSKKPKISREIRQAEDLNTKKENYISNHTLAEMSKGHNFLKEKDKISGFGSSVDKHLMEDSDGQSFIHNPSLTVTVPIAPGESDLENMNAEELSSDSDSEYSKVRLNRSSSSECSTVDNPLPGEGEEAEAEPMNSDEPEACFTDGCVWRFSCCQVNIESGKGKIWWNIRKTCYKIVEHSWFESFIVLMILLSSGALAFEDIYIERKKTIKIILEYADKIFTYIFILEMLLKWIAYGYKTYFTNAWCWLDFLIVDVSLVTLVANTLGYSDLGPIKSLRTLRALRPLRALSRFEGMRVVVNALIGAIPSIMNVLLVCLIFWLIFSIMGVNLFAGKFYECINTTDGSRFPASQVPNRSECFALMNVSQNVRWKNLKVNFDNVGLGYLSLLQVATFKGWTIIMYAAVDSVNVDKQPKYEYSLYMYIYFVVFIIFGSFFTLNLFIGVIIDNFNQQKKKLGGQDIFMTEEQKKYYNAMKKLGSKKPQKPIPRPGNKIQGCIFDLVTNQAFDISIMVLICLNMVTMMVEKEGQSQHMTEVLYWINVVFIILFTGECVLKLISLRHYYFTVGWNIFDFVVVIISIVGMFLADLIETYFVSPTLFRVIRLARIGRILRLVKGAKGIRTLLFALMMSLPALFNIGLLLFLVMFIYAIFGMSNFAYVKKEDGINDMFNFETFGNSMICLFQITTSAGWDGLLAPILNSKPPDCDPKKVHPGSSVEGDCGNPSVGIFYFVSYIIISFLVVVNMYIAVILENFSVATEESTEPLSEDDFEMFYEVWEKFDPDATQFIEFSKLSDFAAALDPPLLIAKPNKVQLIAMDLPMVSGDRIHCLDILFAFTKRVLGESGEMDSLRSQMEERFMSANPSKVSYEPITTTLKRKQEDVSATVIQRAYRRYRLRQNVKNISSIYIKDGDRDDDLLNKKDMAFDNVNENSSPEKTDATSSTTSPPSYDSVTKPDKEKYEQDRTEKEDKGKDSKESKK
Chain of hNav1.3 (Q9NY46 whole entry): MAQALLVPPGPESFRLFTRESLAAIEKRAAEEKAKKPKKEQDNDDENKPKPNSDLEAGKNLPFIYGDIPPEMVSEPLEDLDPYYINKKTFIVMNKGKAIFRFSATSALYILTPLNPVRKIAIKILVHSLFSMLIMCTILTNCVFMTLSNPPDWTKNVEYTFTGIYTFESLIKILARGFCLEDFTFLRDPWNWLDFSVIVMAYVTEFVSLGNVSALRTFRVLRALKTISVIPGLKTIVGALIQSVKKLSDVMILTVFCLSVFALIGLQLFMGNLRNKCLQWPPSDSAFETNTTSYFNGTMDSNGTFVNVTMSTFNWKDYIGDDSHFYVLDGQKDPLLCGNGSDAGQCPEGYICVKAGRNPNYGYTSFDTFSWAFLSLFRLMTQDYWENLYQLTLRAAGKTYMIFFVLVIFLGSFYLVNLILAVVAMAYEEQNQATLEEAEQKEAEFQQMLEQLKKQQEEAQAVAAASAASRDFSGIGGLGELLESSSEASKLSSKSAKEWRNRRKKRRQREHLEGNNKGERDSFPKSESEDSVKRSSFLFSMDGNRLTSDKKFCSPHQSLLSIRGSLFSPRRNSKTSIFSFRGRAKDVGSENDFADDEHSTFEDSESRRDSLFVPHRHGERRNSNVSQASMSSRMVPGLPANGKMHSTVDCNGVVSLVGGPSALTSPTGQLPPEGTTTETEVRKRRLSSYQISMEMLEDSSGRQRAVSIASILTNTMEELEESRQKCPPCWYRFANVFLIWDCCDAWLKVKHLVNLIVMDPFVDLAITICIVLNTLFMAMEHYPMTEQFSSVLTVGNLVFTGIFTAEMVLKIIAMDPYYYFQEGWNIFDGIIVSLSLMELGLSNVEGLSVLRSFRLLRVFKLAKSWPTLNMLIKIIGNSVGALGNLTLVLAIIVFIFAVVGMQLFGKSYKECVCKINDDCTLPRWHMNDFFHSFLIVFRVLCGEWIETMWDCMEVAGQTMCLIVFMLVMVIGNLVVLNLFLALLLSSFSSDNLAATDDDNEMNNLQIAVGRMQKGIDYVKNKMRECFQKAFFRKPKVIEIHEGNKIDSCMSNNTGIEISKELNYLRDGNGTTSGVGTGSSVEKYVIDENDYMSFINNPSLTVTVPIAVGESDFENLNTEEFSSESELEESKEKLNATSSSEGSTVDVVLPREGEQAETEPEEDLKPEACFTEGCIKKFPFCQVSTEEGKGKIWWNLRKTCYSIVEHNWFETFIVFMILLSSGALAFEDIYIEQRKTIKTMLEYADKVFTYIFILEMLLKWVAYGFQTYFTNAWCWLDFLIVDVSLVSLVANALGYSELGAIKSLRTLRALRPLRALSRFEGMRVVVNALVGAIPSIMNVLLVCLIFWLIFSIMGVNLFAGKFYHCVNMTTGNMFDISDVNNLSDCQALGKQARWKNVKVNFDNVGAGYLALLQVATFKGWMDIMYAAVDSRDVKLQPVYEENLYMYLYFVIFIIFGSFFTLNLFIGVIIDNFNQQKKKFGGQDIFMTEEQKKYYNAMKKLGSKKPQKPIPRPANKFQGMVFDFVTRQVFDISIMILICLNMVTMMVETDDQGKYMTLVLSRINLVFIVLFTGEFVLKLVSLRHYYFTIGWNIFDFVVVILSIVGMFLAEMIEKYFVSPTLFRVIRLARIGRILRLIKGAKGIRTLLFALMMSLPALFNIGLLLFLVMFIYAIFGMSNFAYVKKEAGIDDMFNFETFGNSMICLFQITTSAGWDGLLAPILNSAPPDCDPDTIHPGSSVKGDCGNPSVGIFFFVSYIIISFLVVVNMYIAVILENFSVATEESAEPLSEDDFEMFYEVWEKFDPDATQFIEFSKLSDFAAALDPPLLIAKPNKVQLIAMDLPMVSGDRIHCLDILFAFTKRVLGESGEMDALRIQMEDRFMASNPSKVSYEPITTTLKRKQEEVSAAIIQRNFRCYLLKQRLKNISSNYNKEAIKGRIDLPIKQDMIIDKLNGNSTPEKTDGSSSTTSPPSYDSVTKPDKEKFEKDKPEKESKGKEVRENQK

Structure (SMILES): CC[C@H](C)[C@H](NC(=O)[C@@H](NC(=O)[C@H](CCCCN)NC(=O)[C@H](CCCNC(=N)N)NC(=O)[C@@H]1CSSC[C@@H]2NC(=O)[C@H](C)NC(=O)[C@H](CCCNC(=N)N)NC(=O)[C@H](CCCCN)NC(=O)[C@H](CO)NC(=O)[C@H](CC(=O)O)NC(=O)[C@@H]3CSSC[C@H](NC(=O)[C@H](CCCNC(=N)N)NC(=O)[C@H](CC(C)C)NC(=O)CNC(=O)[C@H](CCC(=O)O)NC(=O)[C@H](CSSC[C@H](NC(=O)[C@@H](N)Cc4ccc(O)cc4)C(=O)N[C@@H](CCC(N)=O)C(=O)N[C@@H](CCCCN)C(=O)N[C@@H](Cc4c[nH]c5ccccc45)C(=O)N[C@@H](CCSC)C(=O)N[C@@H](Cc4cccc5ccccc45)C(=O)N[C@@H]([C@@H](C)O)C(=O)N3)NC2=O)C(=O)N[C@@H](CCCCN)C(=O)N[C@@H](CC(C)C)C(=O)N[C@@H](Cc2c[nH]c3ccccc23)C(=O)N1)[C@@H](C)CC)C(N)=O [compound 30]
- IC50 [1]: 0.013 µM
- IC50 ([2]; Table 6): 0.1 µM
- Nav1.4/Nav1.7 [3]: 2
- Nav1.5/Nav1.7 [3]: 3550
- IC50 ([4]; Table 6): 3.6 µM
- IC50 ([5]; Table 6): 0.12 µM
- Nav1.4/Nav1.7 ([5]; Table 6): 9

Structure (SMILES): CC[C@H](C)[C@H](NC(=O)[C@@H](NC(=O)[C@H](CCCCN)NC(=O)[C@H](CCCNC(=N)N)NC(=O)[C@@H]1CSSC[C@@H]2NC(=O)[C@H](C)NC(=O)[C@H](CCCNC(=N)N)NC(=O)[C@H](CCCCN)NC(=O)[C@H](CO)NC(=O)[C@H](CC(=O)O)NC(=O)[C@@H]3CSSC[C@H](NC(=O)[C@H](CCC(=O)O)NC(=O)[C@H](CC(C)C)NC(=O)CNC(=O)[C@H](CCC(=O)O)NC(=O)[C@H](CSSC[C@H](NC(=O)[C@@H](N)Cc4ccc(O)cc4)C(=O)N[C@@H](CCC(N)=O)C(=O)N[C@@H](CCCCN)C(=O)N[C@@H](Cc4c[nH]c5ccccc45)C(=O)N[C@@H](CCSC)C(=O)N[C@@H](Cc4c[nH]c5ccccc45)C(=O)N[C@@H]([C@@H](C)O)C(=O)N3)NC2=O)C(=O)N[C@@H](CCCCN)C(=O)N[C@@H](CC(C)C)C(=O)N[C@@H](Cc2c[nH]c3ccccc23)C(=O)N1)[C@@H](C)CC)C(N)=O [compound 63]
- Nav1.4/Nav1.7 ([1]; ratio of IonWorks Quattro IC50 values, Nav1.4 over Nav1.7): 14
- IC50 [1]: 0.073 µM
- IC50 ([2]; Table 6): 2.5 µM
- selectivity against hNav1.4 relative to hNav1.7 [6]: greater than 1000 fold
- Nav1.4/Nav1.7 [3]: 179
- Nav1.5/Nav1.7 [3]: 1333
- IC50 ([4]; Table 6): > 5 µM
- IC50 ([5]; Table 6): 4.6 µM
- Nav1.4/Nav1.7 ([5]; Table 6): 63

Structure (SMILES): CC[C@H](C)[C@H](NC(=O)[C@@H](NC(=O)[C@H](CCCCN)NC(=O)[C@H](CCCNC(=N)N)NC(=O)[C@@H]1CSSC[C@@H]2NC(=O)[C@H](C)NC(=O)[C@H](CCCNC(=N)N)NC(=O)[C@H](CCCCN)NC(=O)[C@H](CO)NC(=O)[C@H](CC(=O)O)NC(=O)[C@@H]3CSSC[C@H](NC(=O)[C@H](CCCNC(=N)N)NC(=O)[C@H](CC(C)C)NC(=O)CNC(=O)[C@H](CCC(=O)O)NC(=O)[C@H](CSSC[C@H](NC(=O)[C@@H](N)CCC(=O)O)C(=O)N[C@@H](CCC(N)=O)C(=O)N[C@@H](CCCCN)C(=O)N[C@@H](Cc4c[nH]c5ccccc45)C(=O)N[C@@H](CCSC)C(=O)N[C@@H](Cc4c[nH]c5ccccc45)C(=O)N[C@@H]([C@@H](C)O)C(=O)N3)NC2=O)C(=O)N[C@@H](CCCCN)C(=O)N[C@@H](CC(C)C)C(=O)N[C@@H](Cc2c[nH]c3ccccc23)C(=O)N1)[C@@H](C)CC)C(N)=O [compound 49]
- IC50 [1]: 0.018 µM
- IC50 ([2]; Table 6): 0.16 µM
- Nav1.4/Nav1.7 [3]: 27
- Nav1.5/Nav1.7 [3]: 21467
- IC50 ([4]; Table 6): > 5 µM
- IC50 ([5]; Table 6): 0.23 µM
- Nav1.4/Nav1.7 ([5]; Table 6): 13

Structure (SMILES): CC[C@H](C)[C@H](NC(=O)[C@@H](NC(=O)[C@H](CCCCN)NC(=O)[C@H](CCCNC(=N)N)NC(=O)[C@@H]1CSSC[C@@H]2NC(=O)[C@H](C)NC(=O)[C@H](CCCNC(=N)N)NC(=O)[C@H](CCCCN)NC(=O)[C@H](CO)NC(=O)[C@H](CC(=O)O)NC(=O)[C@@H]3CSSC[C@H](NC(=O)[C@H](C)NC(=O)[C@H](CC(C)C)NC(=O)CNC(=O)[C@H](CCC(=O)O)NC(=O)[C@H](CSSC[C@H](NC(=O)[C@@H](N)Cc4ccc(O)cc4)C(=O)N[C@@H](CCC(N)=O)C(=O)N[C@@H](CCCCN)C(=O)N[C@@H](Cc4c[nH]c5ccccc45)C(=O)N[C@@H](CCSC)C(=O)N[C@@H](Cc4c[nH]c5ccccc45)C(=O)N[C@@H]([C@@H](C)O)C(=O)N3)NC2=O)C(=O)N[C@@H](CCCCN)C(=O)N[C@@H](CC(C)C)C(=O)N[C@@H](Cc2c[nH]c3ccccc23)C(=O)N1)[C@@H](C)CC)C(N)=O [compound 17]
- IC50 [1]: 0.009 µM
- IC50 ([2]; Table 6): 0.26 µM
- Nav1.4/Nav1.7 [3]: 8
- Nav1.5/Nav1.7 [3]: 229
- IC50 ([4]; Table 6): > 5 µM
- IC50 ([5]; Table 6): 0.42 µM
- Nav1.4/Nav1.7 ([5]; Table 6): 46

Structure (SMILES): CC[C@H](C)[C@H](NC(=O)[C@@H](NC(=O)[C@H](CCCCN)NC(=O)[C@H](CCCNC(=N)N)NC(=O)[C@@H]1CSSC[C@@H]2NC(=O)[C@H](CCCNC(=N)N)NC(=O)[C@H](CCCNC(=N)N)NC(=O)[C@H](CCCCN)NC(=O)[C@H](CO)NC(=O)[C@H](CC(=O)O)NC(=O)[C@@H]3CSSC[C@H](NC(=O)[C@H](CCCNC(=N)N)NC(=O)[C@H](CC(C)C)NC(=O)CNC(=O)[C@H](CCC(=O)O)NC(=O)[C@H](CSSC[C@H](NC(=O)[C@@H](N)Cc4ccc(O)cc4)C(=O)N[C@@H](CCC(N)=O)C(=O)N[C@@H](CCCCN)C(=O)N[C@@H](Cc4c[nH]c5ccccc45)C(=O)N[C@@H](CCSC)C(=O)N[C@@H](Cc4c[nH]c5ccccc45)C(=O)N[C@@H]([C@@H](C)O)C(=O)N3)NC2=O)C(=O)N[C@@H](CCCCN)C(=O)N[C@@H](CC(C)C)C(=O)N[C@@H](Cc2c[nH]c3ccccc23)C(=O)N1)[C@@H](C)CC)C(N)=O [compound 100]
- IC50 [1]: 0.008 µM
- IC50 ([2]; Table 6): 0.04 µM
- IC50 ([4]; Table 6): 1.4 µM
- IC50 ([5]; Table 6): 0.08 µM
- Nav1.4/Nav1.7 ([5]; Table 6): 11

Structure (SMILES): CCCC[C@@H]1NC(=O)[C@H](Cc2c[nH]c3ccccc23)NC(=O)[C@H](CCCCN)NC(=O)[C@H](CCC(N)=O)NC(=O)[C@@H](NC(=O)[C@@H](N)Cc2ccc(O)cc2)CSSC[C@@H]2NC(=O)[C@@H]3CSSC[C@@H](C(=O)N[C@@H](CCCNC(=N)N)C(=O)N[C@@H](CCCCN)C(=O)N[C@H](C(=O)N[C@@H](Cc4cn(CCCOCCOCCOCCOCCOCCOCCOCCOCCOCCOCCN)nn4)C(N)=O)[C@@H](C)CC)NC(=O)[C@H](Cc4c[nH]c5ccccc45)NC(=O)[C@H](CC(C)C)NC(=O)[C@H](CCCCN)NC(=O)[C@H](CSSC[C@H](NC(=O)[C@H]([C@@H](C)O)NC(=O)[C@H](Cc4c[nH]c5ccccc45)NC1=O)C(=O)N[C@@H](CC(=O)O)C(=O)N[C@@H](CO)C(=O)N[C@@H](CCCCN)C(=O)N[C@@H](CCCNC(=N)N)C(=O)N[C@@H](C)C(=O)N3)NC(=O)[C@H](CCCNC(=N)N)NC(=O)[C@H](CC(C)C)NC(=O)CNC(=O)[C@H](CCC(=O)O)NC2=O [compound 270]
- IC50 ([1]; IonWorks Quattro, […]): 0.4 µM
- IC50 ([2]; Table 9): 3.9 µM
- IC50 ([3]; read-out: PX hNav1.7 Tonic IC50): 0.022 µM
- IC50 ([4]; Table 9): > 7 µM
- IC50 ([5]; Table 9): 0.75 µM
- Nav1.4/Nav1.7 ([5]; Table 9): 2

Structure (SMILES): CC[C@H](C)[C@H](NC(=O)[C@H](CCCCN)NC(=O)[C@H](CCCNC(=N)N)NC(=O)[C@@H]1CSSC[C@@H]2NC(=O)[C@H](C)NC(=O)[C@H](CCCNC(=N)N)NC(=O)[C@H](CCCCN)NC(=O)[C@H](CO)NC(=O)[C@H](CC(=O)O)NC(=O)[C@@H]3CSSC[C@H](NC(=O)[C@H](CCCNC(=N)N)NC(=O)[C@H](CC(C)C)NC(=O)CNC(=O)[C@H](CCC(=O)O)NC(=O)[C@H](CSSC[C@H](NC(=O)[C@@H](N)Cc4ccc(O)cc4)C(=O)N[C@@H](CCC(N)=O)C(=O)N[C@@H](CCCCN)C(=O)N[C@@H](Cc4c[nH]c5ccccc45)C(=O)N[C@@H](CCSC)C(=O)N[C@@H](Cc4c[nH]c5ccccc45)C(=O)N[C@@H]([C@@H](C)O)C(=O)N3)NC2=O)C(=O)N[C@@H](CCCCN)C(=O)N[C@@H](CC(C)C)C(=O)N[C@@H](Cc2c[nH]c3ccccc23)C(=O)N1)C(=O)N[C@@H](C)C(N)=O [compound 24]
- IC50 [1]: 0.053 µM
- IC50 ([2]; Table 6): 0.45 µM
- IC50 ([4]; Table 6): > 5 µM
- IC50 ([5]; Table 6): 0.27 µM
- Nav1.4/Nav1.7 ([5]; Table 6): 5

Structure (SMILES): CC[C@H](C)[C@H](NC(=O)[C@@H](NC(=O)[C@H](CCCCN)NC(=O)[C@H](CCCNC(=N)N)NC(=O)[C@@H]1CSSC[C@@H]2NC(=O)[C@H](C)NC(=O)[C@H](CCCNC(=N)N)NC(=O)[C@H](CCCCN)NC(=O)[C@H](CO)NC(=O)[C@H](CC(=O)O)NC(=O)[C@@H]3CSSC[C@H](NC(=O)[C@H](CCCNC(=N)N)NC(=O)[C@H](CC(C)C)NC(=O)CNC(=O)[C@H](CCC(=O)O)NC(=O)[C@H](CSSC[C@H](NC(=O)[C@H](C)N)C(=O)N[C@@H](CCC(N)=O)C(=O)N[C@@H](CCCCN)C(=O)N[C@@H](Cc4c[nH]c5ccccc45)C(=O)N[C@@H](CCSC)C(=O)N[C@@H](Cc4c[nH]c5ccccc45)C(=O)N[C@@H]([C@@H](C)O)C(=O)N3)NC2=O)C(=O)N[C@@H](CCCCN)C(=O)N[C@@H](CC(C)C)C(=O)N[C@@H](Cc2c[nH]c3ccccc23)C(=O)N1)[C@@H](C)CC)C(N)=O [compound 3]
- IC50 [1]: 0.004 µM
- IC50 ([2]; Table 6): 0.04 µM
- IC50 ([4]; Table 6): 3.1 µM
- IC50 ([5]; Table 6): 0.07 µM
- Nav1.4/Nav1.7 ([5]; Table 6): 18
